This note sets out measurements from patent US20240101546A1, “HETEROARYL-ACETYLENES, PHARMACEUTICAL COMPOSITIONS THEREOF, AND THEIR THERAPEUTIC APPLICATIONS” (Eubulus Biotherapeutics Inc., priority 2020, published 2024).

pEC50: −log10 of the molar value.

The test system of the assay is lung cancer cell line NCI-H82. In words: Cell proliferation assay, NCI-H82 (CELL-TITER GLO). Conditions: Homo sapiens, NCI-H82, 72 h, NCI-H82 cells, 72 h incubation, cell viability by CELL-TITER GLO, top concentration 1 μM; read-out: EC50, Inhibition of NCl-H82 Cell Proliferation. Format: cell-based. The method in brief: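 NCI-H82 cells, 1,000 per well in RPMI1640, were treated after overnight plating with a 3-fold dilution series from 1 μM. Viability read by CellTiter-Glo luminescence after 72 h. EC50 derived from the curves.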
Regarding `C#Cc1nc(NC(=O)N[C@H](CO)c2ccc(-c3cccnc3C3(C#N)CC3)c(Cl)c2)cs1` [Compound A66, (S)-1-(1-(3-Chloro-4-(2-(1-cyanocyclopropyl)pyridin-3-yl)phenyl)-2-hydroxy-ethyl)-3-(2-ethynylthiazol-4-yl)urea], the pEC50 was no less than 6.70.
Under `C#Cc1nc(NC(=O)NCc2ccc(-c3cccc(C4(O)CCC4)c3)cc2)cs1` [Compound A170, 1-(2-Ethynylthiazol-4-yl)-3-((3′-(1-hydroxycyclobutyl)-[1,1′-biphenyl]-4-yl)-methyl)urea] stands no less than 6.70.
Turning to `C#Cc1nc(NC(=O)Nc2ncnc3c(F)c(-c4c(F)cccc4OC)c(Cl)cc23)cs1` [Compound A162, 1-(6-Chloro-8-fluoro-7-(2-fluoro-6-methoxyphenyl)quinazolin-4-yl)-3-(2-ethynylthiazol-4-yl)urea], the pEC50 was no less than 6.70.
To `C#Cc1nc(NC(=O)N[C@@H](C(N)=O)c2ccc(-c3cccc4ncsc34)cc2)cs1` [Compound A210, (R)-2-(4-(Benzo[d]thiazol-7-yl)phenyl)-2-(3-(2-ethynylthiazol-4-yl)ureido)-acetamide] belongs no less than 6.70; to `C#Cc1nc(NC(=O)NCC2CCC(c3cccc(C4(C#N)CC4)c3)CC2)cs1` (stereo not shown) [Compound A238, 1-((4-(3-(1-Cyanocyclopropyl)phenyl)cyclohexyl)methyl)-3-(2-ethynylthiazol-4-yl)urea], no less than 6.70.
To `C#Cc1nc(NC(=O)N2CCN(c3ccc(-c4cccc(N5CCCC5)c4)cc3)CC2)cs1` [Compound B15, N-(2-Ethynylthiazol-4-yl)-4-(3′-(pyrrolidin-1-yl)-[1,1′-biphenyl]-4-yl)piperazine-1-carboxamide] belongs no less than 6.70; to `C#Cc1nc(NC(=O)N[C@@H](C)c2ccc(-c3cccc4ncsc34)cc2)cs1` [Compound A25, (S)-1-(1-(4-(Benzo[d]thiazol-7-yl)phenyl)ethyl)-3-(2-ethynylthiazol-4-yl)urea], no less than 6.70.
Take `C#Cc1nc(NC(=O)N[C@@H](COC)c2ccc(-c3cccc4ncsc34)cc2)cs1` [Compound A200, (R)-1-(1-(4-(Benzo[d]thiazol-7-yl)phenyl)-2-methoxyethyl)-3-(2-ethynylthiazol-4-yl)urea]: the pEC50 was no less than 6.70.
To `C#Cc1nc(NC(=O)N[C@@H](CO)c2ccc(-c3cccc4ccnc(O)c34)cc2)cs1` [Compound A104, (R)-1-(2-Ethynylthiazol-4-yl)-3-(2-hydroxy-1-(4-(1-hydroxyisoquinolin-8-yl)-phenyl)ethyl)urea] belongs no less than 6.70.
To `C#Cc1nc(NC(=O)N[C@@H](COC(N)=O)c2ccc(-c3cccnc3C3(C#N)CC3)c(Cl)c2)cs1` [Compound A69, (R)-2-(3-Chloro-4-(2-(1-cyanocyclopropyl)pyridin-3-yl)phenyl)-2-(3-(2-ethynyl-thiazol-4-yl)ureido)ethyl carbamate] belongs no less than 6.70; to `C#Cc1nc(NC(=O)N[C@@H](COC(N)=O)c2ccc(-c3cccc(N4CCCC4)n3)cc2)cs1` [Compound A234, (R)-2-(3-(2-Ethynylthiazol-4-yl)ureido)-2-(4-(6-(pyrrolidin-1-yl)pyridin-2-yl)-phenyl)ethyl carbamate], no less than 6.70; to `C#Cc1nc(NC(=O)N[C@H](CO)C(=O)N2CCC3(CCCC3)CC2)cs1` [Compound A155, (R)-1-(2-Ethynylthiazol-4-yl)-3-(3-hydroxy-1-oxo-1-(8-azaspiro[4.5]decan-8-yl)propan-2-yl)urea], no less than 6.70.
With `C#Cc1nc(NC(=O)N[C@@H](CO)c2ccc(-c3cccc(N4CCC4)c3)cc2)cs1` [Compound A190, (R)-1-(1-(3′-(Azetidin-1-yl)-[1,1′-biphenyl]-4-yl)-2-hydroxyethyl)-3-(2-ethynyl-thiazol-4-yl)urea], the pEC50 is no less than 6.70.
To `C#Cc1nc(NC(=O)N[C@@H](CO)c2ccc(-c3c(F)cc(F)cc3C3(C#N)CC3)cn2)cs1` [Compound A79, (R)-1-(1-(5-(2-(1-Cyanocyclopropyl)-4,6-difluorophenyl)pyridin-2-yl)-2-hydroxyethyl)-3-(2-ethynylthiazol-4-yl)urea] belongs no less than 6.70; to `C#Cc1nc(NC(=O)N[C@@H](CO)c2ccc(C3=C(C#N)CCCC3)cc2)cs1` [Compound A141, (R)-1-(1-(6′-Cyano-2′,3′,4′,5′-tetrahydro-[1,1′-biphenyl]-4-yl)-2-hydroxyethyl)-3-(2-ethynylthiazol-4-yl)urea], no less than 6.70.
To `C#Cc1nc(NC(=O)N[C@@H](COC(N)=O)c2ccc(-c3cccc(C4(C#N)CC4)n3)cc2)cs1` [Compound A56, (R)-2-(4-(6-(1-Cyanocyclopropyl)pyridin-2-yl)phenyl)-2-(3-(2-ethynylthiazol-4-yl)ureido)ethyl carbamate] belongs no less than 6.70; to `C#Cc1nc(NC(=O)N[C@@H](COC(N)=O)c2ccc(-c3cc(C4(C#N)CC4)ccn3)cc2)cs1` [Compound A57, (R)-2-(4-(4-(1-Cyanocyclopropyl)pyridin-2-yl)phenyl)-2-(3-(2-ethynylthiazol-4-yl)ureido)ethyl carbamate], no less than 6.70.
To `C#Cc1nc(NC(=O)N[C@@H](C(=O)NC)c2ccc(-c3cccnc3C3(C#N)CC3)c(Cl)c2)cs1` [Compound A74, (R)-2-(3-Chloro-4-(2-(1-cyanocyclopropyl)pyridin-3-yl)phenyl)-2-(3-(2-ethynyl-thiazol-4-yl)ureido)-N-methylacetamide] belongs no less than 6.70; to `C#Cc1nc(NC(=O)NC(COC(N)=O)c2ccc(-c3cccc(C4(C#N)CC4)c3)cc2)cs1` (stereo not shown) [Compound A222], no less than 6.70.
On to `C#Cc1nc(NC(=O)NCc2ccc(N3CCCC3)cc2)cs1` [Compound A30, 1-(2-Ethynylthiazol-4-yl)-3-(4-(pyrrolidin-1-yl)benzyl)urea], for which the pEC50 is no less than 6.70.
For the molecule `C#Cc1nnc(NC(=O)N(C)[C@@H](COC(N)=O)c2ccc(-c3cccc(N4CCCC4)n3)cc2)s1` [Compound A95, (R)-2-(3-(5-Ethynyl-1,3,4-thiadiazol-2-yl)-1-methylureido)-2-(4-(6-(pyrrolidin-1-yl)pyridin-2-yl)phenyl)ethyl carbamate], the pEC50 is no less than 6.70.
Regarding `C#Cc1nc(NC(=O)N[C@@H](CO)C(=O)N2CC(c3ccccc3C#N)C2)cs1` [Compound A145, (S)-1-(1-(3-(2-Cyanophenyl)azetidin-1-yl)-3-hydroxy-1-oxopropan-2-yl)-3-(2-ethynylthiazol-4-yl)urea], the pEC50 was 6.00 to 6.70.
For `C#Cc1nc(NC(=O)NCC2CCN(c3cccc(C4(C#N)CC4)c3)CC2)cs1` [Compound A240, 1-((1-(3-(1-Cyanocyclopropyl)phenyl)piperidin-4-yl)methyl)-3-(2-ethynylthiazol-4-yl)urea], the pEC50 is no less than 6.70.
Under `C#Cc1nc(NC(=O)N[C@H](C)c2ccc(-c3cccc4ncsc34)cc2)cs1` [Compound A26, (R)-1-(1-(4-(Benzo[d]thiazol-7-yl)phenyl)ethyl)-3-(2-ethynylthiazol-4-yl)urea] stands 6.00 to 6.70; under `C#Cc1nnc(NC(=O)N[C@@H](COC(N)=O)c2ccc(-c3ccc(F)cc3C3CC3(F)F)cn2)s1` (stereo partly drawn) [Compound A87, (2R)-2-(5-(2-(2,2-Difluorocyclopropyl)-4-fluorophenyl)pyridin-2-yl)-2-(3-(5-ethynyl-1,3,4-thiadiazol-2-yl)ureido)ethyl carbamate], no less than 6.70.
As for `C#Cc1nc(NC(=O)N[C@@H](CO)c2ccc(N3CCCC3)cc2)cs1` [Compound A128, (R)-1-(2-Ethynylthiazol-4-yl)-3-(2-hydroxy-1-(4-(pyrrolidin-1-yl)phenyl)ethyl)-urea], the pEC50 is no less than 6.70.
To `C#Cc1nc(NC(=O)N[C@@H](CO)c2ccc(-c3cccc(S(C)(=O)=O)c3)cc2)cs1` [Compound A186, (R)-1-(2-Ethynylthiazol-4-yl)-3-(2-hydroxy-1-(3′-(methylsulfonyl)-[1,1′-biphenyl]-4-yl)ethyl)urea] belongs no less than 6.70; to `C#Cc1nnc(NC(=O)N[C@@H](CO)c2ccc(-c3cccnc3C3(C#N)CC3)c(Cl)c2)s1` [Compound A71, (R)-1-(1-(3-Chloro-4-(2-(1-cyanocyclopropyl)pyridin-3-yl)phenyl)-2-hydroxy-ethyl)-3-(5-ethynyl-1,3,4-thiadiazol-2-yl)urea], no less than 6.70.
On to `C#Cc1nc(NC(=O)N[C@@H](COC(N)=O)c2ccc(-c3cccc4cccnc34)cc2)cs1` [Compound A227, (R)-2-(3-(2-Ethynylthiazol-4-yl)ureido)-2-(4-(quinolin-8-yl)phenyl)ethyl carbamate], for which the pEC50 was no less than 6.70.
Under `C#Cc1nc(NC(=O)N[C@@H](CO)c2ccc(-c3ccc(F)cc3C3CC3(F)F)cn2)cs1` (stereo partly drawn) [Compound A81, 1-((1R)-1-(5-(2-(2,2-Difluorocyclopropyl)-4-fluorophenyl)pyridin-2-yl)-2-hydroxyethyl)-3-(2-ethynylthiazol-4-yl)urea] stands no less than 6.70; under `C#Cc1nc(NC(=O)N[C@@H](CO)c2ccc(-c3cccc(N4CCCC4)n3)cn2)cs1` [Compound A89, (R)-1-(2-Ethynylthiazol-4-yl)-3-(2-hydroxy-1-(6-(pyrrolidin-1-yl)-[2,3′-bipyridin]-6′-yl)ethyl)urea], no less than 6.70; under `C#Cc1nc(NC(=O)N[C@@H](COC(N)=O)c2ccc(-c3cccc4ncccc34)cc2)cs1` [Compound A230, (R)-2-(3-(2-Ethynylthiazol-4-yl)ureido)-2-(4-(quinolin-5-yl)phenyl)ethyl carbamate], no less than 6.70.
To `C#Cc1nc(NC(=O)N[C@@H](CO)c2ccc(N3CCCC3=O)cc2)cs1` [Compound A129, (R)-1-(2-Ethynylthiazol-4-yl)-3-(2-hydroxy-1-(4-(2-oxopyrrolidin-1-yl)phenyl)-ethyl)urea] belongs no less than 6.70; to `C#Cc1nc(NC(=O)N[C@@H](COC(=O)C(C)(C)C)c2ccc(-c3cccc4ncsc34)cc2)cs1` [Compound A202, (R)-2-(4-(Benzo[d]thiazol-7-yl)phenyl)-2-(3-(2-ethynylthiazol-4-yl)ureido)ethyl pivalate], no less than 6.70.
